We go through six compounds from ChEMBL document CHEMBL1138774, “Potent and selective ketoamide-based inhibitors of cysteine protease, cathepsin K” (J Med Chem, 2004).

In test [1] the target is T1, Cathepsin K (Homo sapiens, UniProt P43235).
T1 sequence (P43235 whole entry): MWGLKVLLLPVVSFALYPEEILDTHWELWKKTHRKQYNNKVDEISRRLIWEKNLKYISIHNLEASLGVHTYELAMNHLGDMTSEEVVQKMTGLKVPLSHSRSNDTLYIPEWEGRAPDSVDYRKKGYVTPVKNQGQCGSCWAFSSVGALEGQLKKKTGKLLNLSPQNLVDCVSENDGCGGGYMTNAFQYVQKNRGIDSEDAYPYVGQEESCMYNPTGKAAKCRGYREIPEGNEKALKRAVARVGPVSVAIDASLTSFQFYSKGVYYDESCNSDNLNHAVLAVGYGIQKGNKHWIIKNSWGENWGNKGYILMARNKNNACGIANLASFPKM
Nature of the test: Inhibitory potency against human Cathepsin K.

Test [2] has as its target Cathepsin (H and K) (Homo sapiens) (UniProt P09668+P43235). Nature of the test: Selectivity for human cathepsin H over human cathepsin K. Type of test: protein assay.
The target of test [3] is Cathepsin (L and K) (Homo sapiens) (UniProt P43235+P07711). Nature of the test: Selectivity for human cathepsin L over human cathepsin K. Type of test: protein assay.
For test [4], the target named is Cathepsin (S and K) (Homo sapiens) (UniProt P25774+P43235). Nature of the test: Selectivity for human cathepsin S over human cathepsin K. Type of test: protein assay.
Test [5] concerns the target Cathepsin (V and K) (Homo sapiens) (UniProt P43235+O60911). Briefly: Selectivity for human cathepsin V over human cathepsin K. In kind it is protein assay.
For test [6], the target named is Cathepsin (B and K) (Homo sapiens) (UniProt P43235+P07858). Nature of the test: Selectivity for human cathepsin B over human cathepsin K. In kind it is protein assay.

Sequence of Cathepsin (H and K) (Homo sapiens) (P09668 whole entry, looked up, one chain of several): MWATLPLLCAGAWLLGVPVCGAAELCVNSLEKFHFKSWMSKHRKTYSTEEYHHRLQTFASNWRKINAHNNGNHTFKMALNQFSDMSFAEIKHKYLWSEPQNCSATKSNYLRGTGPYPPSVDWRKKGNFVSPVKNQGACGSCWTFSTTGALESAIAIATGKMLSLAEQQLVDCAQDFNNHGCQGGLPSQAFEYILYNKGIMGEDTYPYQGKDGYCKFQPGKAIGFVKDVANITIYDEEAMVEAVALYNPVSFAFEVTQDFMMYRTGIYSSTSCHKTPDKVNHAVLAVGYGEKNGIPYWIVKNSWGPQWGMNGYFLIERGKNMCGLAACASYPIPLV
Sequence of Cathepsin (L and K) (Homo sapiens) (P07711 whole entry, looked up, one chain of several): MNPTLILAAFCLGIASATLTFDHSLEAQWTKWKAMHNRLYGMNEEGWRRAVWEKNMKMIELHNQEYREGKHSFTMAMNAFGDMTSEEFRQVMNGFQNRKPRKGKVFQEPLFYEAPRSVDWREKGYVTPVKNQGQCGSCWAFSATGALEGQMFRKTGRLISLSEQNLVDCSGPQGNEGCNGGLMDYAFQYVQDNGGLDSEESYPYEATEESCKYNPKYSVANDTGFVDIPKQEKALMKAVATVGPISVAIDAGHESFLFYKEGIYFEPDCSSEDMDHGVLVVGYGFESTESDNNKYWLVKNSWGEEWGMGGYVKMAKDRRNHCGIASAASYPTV
Sequence of Cathepsin (V and K) (Homo sapiens) (O60911 whole entry, looked up, one chain of several): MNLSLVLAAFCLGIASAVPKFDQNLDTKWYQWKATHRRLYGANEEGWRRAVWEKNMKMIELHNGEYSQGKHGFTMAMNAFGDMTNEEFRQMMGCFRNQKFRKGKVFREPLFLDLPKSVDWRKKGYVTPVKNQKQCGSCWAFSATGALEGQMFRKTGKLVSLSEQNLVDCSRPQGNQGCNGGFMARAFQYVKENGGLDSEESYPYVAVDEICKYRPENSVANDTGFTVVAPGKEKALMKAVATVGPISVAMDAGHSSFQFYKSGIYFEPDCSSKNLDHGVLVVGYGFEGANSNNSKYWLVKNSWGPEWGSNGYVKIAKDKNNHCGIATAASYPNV
Sequence of Cathepsin (S and K) (Homo sapiens) (P25774 whole entry, looked up, one chain of several): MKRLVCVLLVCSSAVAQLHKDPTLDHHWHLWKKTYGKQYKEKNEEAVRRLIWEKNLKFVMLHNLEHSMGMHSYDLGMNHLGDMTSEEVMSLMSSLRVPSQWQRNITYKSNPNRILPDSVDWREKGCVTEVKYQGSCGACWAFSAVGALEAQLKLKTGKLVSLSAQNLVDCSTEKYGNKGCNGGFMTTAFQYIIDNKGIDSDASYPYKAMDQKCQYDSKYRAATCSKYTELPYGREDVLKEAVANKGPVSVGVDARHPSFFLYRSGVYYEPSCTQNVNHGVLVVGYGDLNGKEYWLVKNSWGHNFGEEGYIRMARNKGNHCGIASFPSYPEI

For the compound `CCCC[C@H](NC(=O)OCC1(CC)CCC1)C(=O)C(=O)Nc1ccnn1CC(C)C`, the half-maximal inhibitory concentration (IC50) – broadly, the concentration that gives 50% inhibition – in test [1] is 76 nM. For the same compound, the Selectivity in test [2] was above 170; in test [3] it was above 170; in test [4], 14; in test [5], 89; in test [6], above 170.

Turning to `CCCC[C@H](NC(=O)OCC1(CC)COC1)C(=O)C(=O)Nc1cc(-c2ccccc2)n[nH]1`, the IC50 in test [1] is 10 nM. This counts as double-digit nanomolar.

For the compound `CCCC[C@H](NC(=O)OCC1(CC)CCC1)C(=O)C(=O)Nc1ccon1`, the IC50 in test [1] was 20 nM.

For `CCCC[C@H](NC(=O)OCC1(CC)CCC1)C(=O)C(=O)Nc1ccnn1CC1CC1`, in test [1], the IC50 worked out at 51 nM. Moreover, the Selectivity in test [2] is above 250; in test [3], above 250; in test [4], 33; in test [5] it was 102; in test [6], above 250.

As to `CCCC[C@H](NC(=O)OCC1(CC)COC1)C(=O)C(=O)N[C@H](C)c1ccccc1`, 68 nM corresponded to half-maximal inhibition in test [1] (IC50).

With `CCCC[C@H](NC(=O)OCC1(CC)CCC1)C(=O)C(=O)Nc1ccnn1C1CCC1`, in test [1], the midpoint of inhibition, the IC50, lay at 45 nM. Besides, the Selectivity is above 280 in test [2]; 270 in test [3]; 14 in test [4]; 49 in test [5]; above 280 in test [6].
